The target of the assay is PD-L1 His protein / PD-1 Fc protein (Homo sapiens, UniProt Q9NZQ7). As to the kind of experiment: HTRF Assay (PD-1/PD-L1 interaction). In kind it is binding. To be noted: PD-L1 His 6 nM, PD-1 Fc 6 nM. In short, it runs like this:
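HTRF: PD-L1 His (6 nM final), compound (3-fold dilutions, 20 μM to 0.001 μM final) and PD-1 Fc (6 nM final) preincubated 15 min at room temperature. Anti-human IgG-XL665 and anti-6HIS Tb cryptate (mixed at 6.7 nM and 0.35 nM) then added for 1 h at room temperature before reading.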

PD-L1 His protein / PD-1 Fc protein, sequence (Q9NZQ7 19-238 limits assumed): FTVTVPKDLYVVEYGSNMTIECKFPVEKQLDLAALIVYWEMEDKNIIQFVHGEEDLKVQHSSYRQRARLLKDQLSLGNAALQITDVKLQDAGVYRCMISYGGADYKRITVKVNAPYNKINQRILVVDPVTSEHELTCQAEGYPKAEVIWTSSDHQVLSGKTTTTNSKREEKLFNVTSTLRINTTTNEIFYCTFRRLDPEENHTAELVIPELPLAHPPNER

The term IC50 denotes the concentration that gives 50% inhibition. Read a low IC50 as greater potency. For `COc1nc(-c2cccc(-c3cccc(-c4ccn5c(=O)c(CNC[C@@H](C)O)cnc5c4)c3Cl)c2Cl)ccc1CNC[C@@H](C)O` [Example 186, 8-(2,2′-Dichloro-3′-(5-((((R)-2-hydroxypropyl)amino)methyl)-6-methoxypyridin-2-yl)-[1,1′-biphenyl]-3-yl)-3-((((R)-2-hydroxypropyl)amino)methyl)-4H-pyrido[1,2-a]pyrimidin-4-one], the IC50 came out at 6.4 nM.

Take `COc1nc(-c2cccc(-c3cccc(-c4ccn5c(=O)c(CN(C)CC(=O)O)cnc5c4)c3Cl)c2Cl)ccc1CNC[C@@H]1CCC(=O)N1` [Example 187, (S)—N-((8-(2,2′-Dichloro-3′-(6-methoxy-5-((((5-oxopyrrolidin-2-yl)methyl)amino)methyl)pyridin-2-yl)-[1,1′-biphenyl]-3-yl)-4-oxo-4H-pyrido[1,2-a]pyrimidin-3-yl)methyl)-N-methylglycine]: the IC50 is 0.1 nM.

The compound `COc1nc(-c2cccc(-c3cccc(-c4ccn5c(=O)c(CN6CC(C(=O)O)C6)cnc5c4)c3Cl)c2Cl)ccc1CNCCO` [Example 188, 1-((8-(2,2′-Dichloro-3′-(5-(((2-hydroxyethyl)amino)methyl)-6-methoxypyridin-2-yl)-[1,1′-biphenyl]-3-yl)-4-oxo-4H-pyrido[1,2-a]pyrimidin-3-yl)methyl)azetidine-3-carboxylic acid] returned a 50% inhibitory concentration (IC50) of 0.1 nM.

In turn, `COc1nc(-c2cccc(-c3cccc(-c4ccn5c(=O)c(CNCC(=O)O)cnc5c4)c3Cl)c2Cl)ccc1CNC[C@@H]1CCC(=O)N1` [Example 189, (S)-((8-(2,2′-Dichloro-3′-(6-methoxy-5-((((5-oxopyrrolidin-2-yl)methyl)amino)methyl)pyridin-2-yl)-[1,1′-biphenyl]-3-yl)-4-oxo-4H-pyrido[1,2-a]pyrimidin-3-yl)methyl)glycine] gave a half-maximal inhibitory concentration (IC50) of 0.1 nM.

`COc1nc(-c2cccc(-c3cccc(-c4ccn5c(=O)c(CN(C)[C@@H](C)C(=O)O)cnc5c4)c3Cl)c2Cl)ccc1CNC[C@@H]1CCC(=O)N1` [Example 190, N-((8-(2,2′-Dichloro-3′-(6-methoxy-5-(((((S)-5-oxopyrrolidin-2-yl)methyl)amino)methyl)pyridin-2-yl)-[1,1′-biphenyl]-3-yl)-4-oxo-4H-pyrido[1,2-a]pyrimidin-3-yl)methyl)-N-methyl-L-alanine] came in with an IC50 of 0.1 nM.

As to `COc1nc(-c2cccc(-c3cccc(-c4ccn5c(=O)c(CN[C@@H](CO)C(=O)O)cnc5c4)c3Cl)c2Cl)ccc1CNCCO` [Example 191, ((8-(2,2′-Dichloro-3′-(5-(((2-hydroxyethyl)amino)methyl)-6-methoxypyridin-2-yl)-[1,1′-biphenyl]-3-yl)-4-oxo-4H-pyrido[1,2-a]pyrimidin-3-yl)methyl)-L-serine], the midpoint of inhibition, the IC50, lay at 0.1 nM.

`COC(=O)[C@H]1CCN(Cc2cnc3cc(-c4cccc(-c5cccc(-c6ccc(CNC[C@@H]7CCC(=O)N7)c(OC)n6)c5Cl)c4Cl)ccn3c2=O)C1` [Example 192, (S)-Methyl 1-((8-(2,2′-dichloro-3′-(6-methoxy-5-(((((S)-5-oxopyrrolidin-2-yl)methyl)amino)methyl)pyridin-2-yl)-[1,1′-biphenyl]-3-yl)-4-oxo-4H-pyrido[1,2-a]pyrimidin-3-yl)methyl)pyrrolidine-3-carboxylate] had an IC50 of 0.8 nM. This IC50 is about 8-fold higher than that of the compound before.

`COc1nc(-c2cccc(-c3cccc(-c4ccn5c(=O)c(CNC[C@H](C)O)c(C)nc5c4)c3Cl)c2Cl)ccc1CNC[C@@H]1CCC(=O)N1` [Example 193, 8-(2,2′-Dichloro-3′-(6-methoxy-5-(((((S)-5-oxopyrrolidin-2-yl)methyl)amino)methyl)pyridin-2-yl)-[1,1′-biphenyl]-3-yl)-3-((((S)-2-hydroxypropyl)amino)methyl)-2-methyl-4H-pyrido[1,2-a]pyrimidin-4-one] came in with a concentration for half-maximal inhibition (IC50) of 0.1 nM.

In turn, `COc1nc(-c2cccc(-c3cccc(-c4ccc5c(OC)c(CNC[C@@H]6CCC(=O)N6)cc(Cl)c5n4)c3Cl)c2Cl)ccc1CNC[C@@H]1CCC(=O)N1` [Example 194, (S)-5-((((8-Chloro-2-(2,2′-dichloro-3′-(6-methoxy-5-(((((S)-5-oxopyrrolidin-2-yl)methyl)amino)methyl)pyridin-2-yl)-[1,1′-biphenyl]-3-yl)-5-methoxyquinolin-6-yl)methyl)amino)methyl)pyrrolidin-2-one] came in with a 50% inhibitory concentration (IC50) of 26 nM.

Consider `COc1nc(-c2cccc(-c3cccc(-c4ccn5c(=O)c(CNC[C@@H](C)O)cnc5c4)c3Cl)c2Cl)ccc1CNC[C@H](C)O` [Example 195, 8-(2,2′-Dichloro-3′-(5-((((S)-2-hydroxypropyl)amino)methyl)-6-methoxypyridin-2-yl)-[1,1′-biphenyl]-3-yl)-3-((((R)-2-hydroxypropyl)amino)methyl)-4H-pyrido[1,2-a]pyrimidin-4-one], for which the IC50 stood at 2.5 nM.

The compound `COc1nc(-c2cccc(-c3cccc(-c4ccn5c(=O)c(CNC[C@H](C)O)cnc5c4)c3Cl)c2Cl)ccc1CNC[C@@H](C)O` [Example 196, 8-(2,2′-Dichloro-3′-(5-((((R)-2-hydroxypropyl)amino)methyl)-6-methoxypyridin-2-yl)-[1,1′-biphenyl]-3-yl)-3-((((S)-2-hydroxypropyl)amino)methyl)-4H-pyrido[1,2-a]pyrimidin-4-one] showed an IC50 of 2.8 nM.

Consider `COc1nc(-c2cccc(-c3cccc(-c4ccn5c(=O)c(CNC[C@@H]6CCC(=O)N6)cnc5c4)c3Cl)c2Cl)ccc1CNC[C@H](C)O` [Example 197, 8-(2,2′-Dichloro-3′-(5-((((S)-2-hydroxypropyl)amino)methyl)-6-methoxypyridin-2-yl)-[1,1′-biphenyl]-3-yl)-3-(((((S)-5-oxopyrrolidin-2-yl)methyl)amino)methyl)-4H-pyrido[1,2-a]pyrimidin-4-one], for which half-maximal inhibition (IC50) required 0.2 nM.

As to `COc1nc(-c2cccc(-c3cccc(-c4ccn5c(=O)c(CNC[C@@H]6CCC(=O)N6)cnc5c4)c3Cl)c2Cl)ccc1CNC[C@@H](C)O` [Example 198, 8-(2,2′-Dichloro-3′-(5-((((R)-2-hydroxypropyl)amino)methyl)-6-methoxypyridin-2-yl)-[1,1′-biphenyl]-3-yl)-3-(((((S)-5-oxopyrrolidin-2-yl)methyl)amino)methyl)-4H-pyrido[1,2-a]pyrimidin-4-one], the IC50 is 0.3 nM.

As for `CNC(=O)CN(C)Cc1cnc2cc(-c3cccc(-c4cccc(-c5ccc(CNC[C@@H]6CCC(=O)N6)c(OC)n5)c4Cl)c3Cl)ccn2c1=O` [Example 200, (S)-2-(((8-(2,2′-Dichloro-3′-(6-methoxy-5-((((5-oxopyrrolidin-2-yl)methyl)amino)methyl)pyridin-2-yl)-[1,1′-biphenyl]-3-yl)-4-oxo-4H-pyrido[1,2-a]pyrimidin-3-yl)methyl)(methyl)amino)-N-methylacetamide], the midpoint of inhibition, the IC50, lay at 0.1 nM.

For `COc1nc(-c2cccc(-c3cccc(-c4ccn5c(=O)c(CNC[C@@H]6CCC(=O)N6)c(OC)nc5c4)c3Cl)c2Cl)ccc1CNC[C@@H]1CCC(=O)N1` [Example 201, 8-(2,2′-Dichloro-3′-(6-methoxy-5-(((((S)-5-oxopyrrolidin-2-yl)methyl)amino)methyl)pyridin-2-yl)-[1,1′-biphenyl]-3-yl)-2-methoxy-3-(((((S)-5-oxopyrrolidin-2-yl)methyl)amino)methyl)-4H-pyrido[1,2-a]pyrimidin-4-one], it took 100 nM to reach half-maximal inhibition (IC50).

Values taken from patent US20230143612A1 (Arbutus Biopharma Corporation, priority 2020, published 2023).
